In PMC7070320, “Unsymmetrically Substituted Dibenzo[b,f][1,5]-diazocine-6,12(5H,11H)dione—A Convenient Scaffold for Bioactive Molecule Design” (Molecules, 2020):
Read-outs that look alike come from different tables or passages of the source. Each block holds one molecule with its values, some of them ahead of it.

How the values were obtained:
[1] = test system: two normal (HEK293, EUFA30) and two cancerous (HeLa, U87) cell lines; assay: Cytotoxicity assay (Alamar Blue), statements over all four cell lines; format: cell-based, human; conditions: concentrations tested: 1–200 µM
Description: (§1) Following cell lines: HeLa, U87, HEK293, EUFA30 were cultured in DMEM medium (Life Technology, Carlsbad, CA, USA) with 10% fetal bovine serum (Thermo Fisher Scientific, Waltham, MA, USA) and 0.1% antibiotics (penicillin, streptomycin, Life Technology, Carlsbad, CA, USA). Cells were grown in atmosphere of 5 and 95% CO2 and air, respectively, at 37 °C.
(§2) Exponentially growing cells at the density of 2 × 10^3 cells/well were seeded onto a 96-well plate, cultured for 18 h, and treated with newly synthesized compounds at concentrations 1–200 µM, or with DMSO as a control, for 24 or 48 h. Alamar Blue (Thermo Fisher Scientific, Waltham, MA, USA) was added accordingly to manufacturer protocol. After 4 h, light emission at 590 nm was measured with excitation at 560 nm using a scanning multiwell spectrophotometer (DTX 880, Beckman Coulter, Brea, CA, USA). The experiments were repeated at least three times with three replicates for each inhibitor concentration. After background subtraction, inhibition rates, IC50, were calculated as the component concentration inhibiting cell growth by 50%. All the calculations were performed using Origin 9.0 software.

HeLa [2] = assay: Cytotoxicity assay (Alamar Blue), HeLa cells; format: cell-based; conditions: Homo sapiens, read-out: IC50 based on the survival of cells
Description: as §1, §2

HEK293 [3] = assay: Flow cytometry apoptosis detection (Annexin V-FITC / propidium iodide), HEK293; format: cell-based, human; conditions: HEK293, 200 µM; for cells in necrosis: control cells 20%; for cells in early apoptosis: control cells 1.3%
Description: as §1
(§3) The apoptosis detection kit (Annexin V-FITC BD Biosciences, Franklin Lakes, NJ, USA) was used to detect apoptosis by flow cytometry. Cells were seeded in 6-well plates at concentration of 5 × 10^5 cells/well, cultured for 18 h, and tested compound was applied for indicated time. Afterwards, cells were washed with PBS, resuspended in binding buffer at concentration of 2 × 10^6 cells/mL. The anti-Annexin V FITC-conjugated antibody and propidium iodide were added to 100 µl aliquots. Then, mixtures were incubated for 15 min at room temperature, supplemented with binding buffer to 500 µl and processed by BD FACSCalibur (BD Biosciences, Franklin Lakes, NJ, USA). Data were analyzed in Flowing Software version 2.5.1 (Flowing Software, http://www.uskonaskel.fi/flowingsoftware).

U87 [4] = assay: Cytotoxicity assay (Alamar Blue), U87 cells; format: cell-based, human; conditions: read-out: IC50 based on the survival of cells
Description: as §1, §2

HEK293 [5] = assay: Cytotoxicity assay (Alamar Blue), HEK293 cells; format: cell-based, human; conditions: read-out: IC50 based on the survival of cells
Description: as §1, §2

EUFA30 = assay: Cytotoxicity assay (Alamar Blue), EUFA30 cells; format: cell-based; conditions: Homo sapiens, read-out: IC50 based on the survival of cells
Description: as §1, §2

U87 [6] = assay: Flow cytometry apoptosis detection (Annexin V-FITC / propidium iodide), U87; format: cell-based, human; conditions: U87, 200 µM; for cells in late apoptosis: control 1.6%; for cells in necrotic phase: 48 h, control 17%; for cells in necrosis: control 8.6%
Description: as §1, §3

HeLa [7] = assay: Flow cytometry apoptosis detection (Annexin V-FITC / propidium iodide), HeLa; format: cell-based, human; conditions: 200 µM
Description: as §1, §3

[8] = Homo sapiens, U-87 MG, 24 h, U87, 24 h of treatment
[9] = Homo sapiens, U-87 MG, 48 h, U87, 48 h of treatment
[10] = Homo sapiens, HEK293, 24 h, HEK293, 24 h of treatment
[11] = Homo sapiens, HEK293, 48 h, HEK293, 48 h of treatment

SMILES: O=C1Nc2ccc(Cl)cc2C(=O)Nc2ccccc21 [Compound 10a, 2-Chlorodibenzo[b,f][1,5]diazocine-6,12(5H,11H)-dione]
melting point: 275 to 276 °C | cytotoxic effect (in words) [1]: no cytotoxic effect in the concentration range tested

SMILES: O=C1Nc2ccc(Br)cc2C(=O)Nc2ccccc21 [Compound 10b, 2-Bromodibenzo[b,f][1,5]diazocine-6,12(5H,11H)-dione]
IC50 (HeLa [2]; 24 h of treatment): 97.3 ± 13.7 µM | melting point: 283 to 284 °C | cytotoxic effect (in words) [1]: showed a cytotoxic effect while maintaining the selectivity of action

SMILES: COc1cc2c(cc1OC)C(=O)Nc1ccc(Br)cc1C(=O)N2 [Compound 10c, 8-Bromo-2,3-dimethoxydibenzo[b,f][1,5]diazocine-6,12(5H,11H)-dione]
melting point: 195 to 196 °C | cytotoxic effect (in words) [1]: no cytotoxic effect in the concentration range tested

SMILES: CN1C(=O)c2ccccc2NC(=O)c2ccccc21 [Compound 10d, 5-Methyldibenzo[b,f][1,5]diazocine-6,12(5H,11H)-dione]
melting point: 258 to 259 °C

SMILES: CN1C(=O)c2cc(Br)ccc2NC(=O)c2ccccc21 [Compound 10e, 2-Bromo-11-methyldibenzo[b,f][1,5]diazocine-6,12(5H,11H)-dione]
IC50 (HeLa [2]; 24 h of treatment): > 200 µM | melting point: 247 to 248 °C

SMILES: CN1C(=O)c2cc([N+](=O)[O-])ccc2NC(=O)c2ccccc21 [Compound 10f, 11-Methyl-2-nitrodibenzo[b,f][1,5]diazocine-6,12(5H,11H)-dione]
cells in late apoptosis (HEK293 [3]; 24 h, control cells 0.4%): 0.5% | cells in necrosis (HEK293 [3]; 24 h): 39% | cells in late apoptosis (HEK293 [3]; 48 h, control cells 0.5%): 3% | cells in early apoptosis (HEK293 [3]; 48 h): 6.6% | IC50 (HeLa [2]; 24 h of treatment): 206 ± 12.8 µM | melting point: 225 to 226 °C | cytotoxic effect (in words) [1]: showed a cytotoxic effect while maintaining the selectivity of action

SMILES: COc1cc2c(cc1OC)C(=O)N(C)c1ccccc1C(=O)N2 [Compound 10g, 2,3-Dimethoxy-11-methyldibenzo[b,f][1,5]diazocine-6,12(5H,11H)-dione]
melting point: 271 to 272 °C

SMILES: CN1C(=O)c2cc3ccccc3cc2NC(=O)c2cc(Cl)ccc21 [Compound 10h, 2-Chloro-5-methylbenzo[b]naphtho[2,3-f][1,5]diazocine-6,14(5H,13H)-dione]
cells in late apoptosis (HEK293 [3]; 24 h, control cells 0.4%): 3% | cells in necrosis (HEK293 [3]; 24 h): 32% | cells in late apoptosis (HEK293 [3]; 48 h, control cells 0.5%): 3.2% | cells in early apoptosis (HEK293 [3]; 48 h): 3.8% | IC50 (U87 [4]; [8]): 149 ± 9 µM | IC50 (U87 [4]; [9]): 182 ± 5.6 µM | IC50 (HeLa [2]; 24 h of treatment): 107 ± 10 µM | IC50 (HeLa [2]; 48 h of treatment): 108 ± 8.6 µM | IC50 (HEK293 [5]; [10]): > 200 µM | melting point: 270 to 271 °C | IC50 (EUFA30; Eufa30, 24 h of treatment): 170 ± 21.1 µM | IC50 (EUFA30; Eufa30, 48 h of treatment): 200 ± 13.9 µM | cells in early apoptosis (U87 [6]; 24 h, control 1.2%): 4.1% | cells in late apoptosis (U87 [6]; 24 h): 6.9% | cells in necrotic phase (U87 [6]): 36.2% | cytotoxic effect (in words) [1]: showed a cytotoxic effect while maintaining the selectivity of action

SMILES: O=C1Nc2ccccc2C(=O)N(Cc2ccccc2)c2ccccc21 [Compound 10i, 5-Benzyldibenzo[b,f][1,5]diazocine-6,12(5H,11H)-dione]
melting point: 212 to 213 °C

SMILES: O=C1Nc2ccccc2C(=O)N(Cc2ccc(Br)cc2)c2ccccc21 [Compound 10j, 5-(4-Bromobenzyl)dibenzo[b,f][1,5]diazocine-6,12(5H,11H)-dione]
cells in late apoptosis (HEK293 [3]; 24 h, control cells 0.4%): 10% | cells in necrosis (HEK293 [3]; 24 h): 22% | cells in late apoptosis (HEK293 [3]; 48 h, control cells 0.5%): 4.4% | cells in early apoptosis (HEK293 [3]; 48 h): 4% | IC50 (HeLa [2]; 24 h of treatment): 138 ± 14.1 µM | IC50 (HeLa [2]; 48 h of treatment): 203 ± 4 µM | IC50 (HEK293 [5]; [11]): 192 ± 12.2 µM | melting point: 222 to 223 °C | cells in late apoptosis (U87 [6]; 24 h): 5.2% | cells in necrosis (U87 [6]; 24 h): 17.8% | cells in necrotic phase (U87 [6]): 28.1% | cytotoxic effect (in words) [1]: showed a cytotoxic effect while maintaining the selectivity of action

More lines, main results first:

melting point: 255 to 256 °C
SMILES: CN1C(=O)c2cc(Br)ccc2N(Cc2cccc3ccccc23)C(=O)c2ccccc21 [Compound 10k, 2-Bromo-11-methyl-5-(naphthalen-1-ylmethyl)dibenzo[b,f][1,5]diazocine-6,12(5H,11H)-dione]
changes in the apoptosis/necrosis phases in relation to control (HEK293 [3]; 24 and 48 h): did not observe any changes in the apoptosis/necrosis phases in relation to control | changes in the apoptosis/necrosis phases in relation to control (HeLa [7]; 24 and 48 h): did not observe any changes in the apoptosis/necrosis phases in relation to control | IC50 (U87 [4]; [8]): 75.4 ± 8.7 µM | IC50 (U87 [4]; [9]): 197 ± 9.4 µM | IC50 (HeLa [2]; 24 h of treatment): 75.3 ± 1.6 µM | IC50 (HeLa [2]; 48 h of treatment): 124 ± 5.4 µM | IC50 (HEK293 [5]; [10]): 119 ± 7.1 µM | IC50 (HEK293 [5]; [11]): 138 ± 12 µM | IC50 (EUFA30; Eufa30, 24 h of treatment): 87.6 ± 8.1 µM | IC50 (EUFA30; Eufa30, 48 h of treatment): 74.4 ± 6.7 µM | changes in the apoptosis/necrosis phases in relation to control (U87 [6]; 24 and 48 h): did not observe any changes in the apoptosis/necrosis phases in relation to control

melting point: 346 to 347 °C
SMILES: O=C1Nc2nccnc2C(=O)Nc2ccc(Cl)cc21 [Compound 10m, 8-Chloropyrazino[3,2-c][1,5]benzodiazocine-6,12(5H,11H)-dione]

melting point: 125 to 126 °C
SMILES: CCOC(=O)CN1C(=O)c2ccccc2N(C)C(=O)c2ccccc21 [Compound 10n, ethyl 2-(11-methyl-6,12-dioxo-11,12-dihydrodibenzo[b,f][1,5]diazocin-5(6H)-yl)acetate]

melting point: 193 to 194 °C
SMILES: CC(=O)N1C(=O)c2ccccc2N(C)C(=O)c2ccccc21 [Compound 10o, 5-acetyl-11-methyldibenzo[b,f][1,5]diazocine-6,12(5H,11H)-dione]

melting point: 186 to 187 °C (dec.)
SMILES: COc1cc2c(cc1OC)C(=S)Nc1ccc(Br)cc1C(=S)N2 [Compound 10p, 8-bromo-2,3-dimethoxydibenzo[b,f][1,5]diazocine-6,12(5H,11H)-dithione]
percentage of necrotic cells (HeLa [7]; 24 h, non-treated control 21.1%): 34.5% | percentage of necrotic cells (HeLa [7]; 48 h, control cells 22.1%): 53.4% | IC50 (U87 [4]; [8]): 170 µM | IC50 (U87 [4]; U87, 24 h of treatment): 172 ± 10 µM | IC50 (HeLa [2]; 24 h of treatment): 115 ± 4.5 µM | IC50 (HeLa [2]; 48 h of treatment): 204 ± 6.5 µM | IC50 (HEK293 [5]; HEK293, 24 h of treatment): 202 ± 7.9 µM | IC50 (HEK293 [5]; [10]): > 200 µM | IC50 (HEK293 [5]; [11]): 145 ± 8.5 µM | IC50 (EUFA30; Eufa30, 24 h of treatment): > 200 µM | IC50 (EUFA30; Eufa30, 48 h of treatment): 158 ± 9.6 µM | cells in necrosis (U87 [6]; 24 h): 14% | cells in necrotic phase (U87 [6]): 46.6% | cytotoxic effect (in words) [1]: showed a cytotoxic effect while maintaining the selectivity of action
